Here are results for eleven compounds from ChEMBL document CHEMBL4261595, “Discovery of 3-(4-sulfamoylnaphthyl)pyrazolo[1,5-a]pyrimidines as potent and selective ALK2 inhibitors” (Bioorg Med Chem Lett, 2018).

Converted amounts (≈) assume the structure as drawn.

One series can be described thus: physchem. The following applies: aqueous, pH 7.4.
A short description of series [1]: Permeability of the compound by PAMPA. The note with it: read-out: permeability. It is filed as ADME. In general terms: PAMPA measures passive passage across an artificial lipid membrane.
For series [2] the following is noted: rat, microsomes.
Series [3] in a line: Cmax in C57BL/6 mouse at 3 mg/kg, po. In kind it is ADME, organism-based. More on the design: dose 3 mg/kg, route oral. The following applies: in vivo.
Series [4] can be described thus: Half life in C57BL/6 mouse at 3 mg/kg, iv. It is filed as ADME, organism-based. The note with it: in vivo.
Series [5] is described as follows: Oral bioavailability in C57BL/6 mouse at 3 mg/kg. The following applies: in vivo. In kind it is ADME, organism-based.
Series [6] can be described thus: AUC (0 to infinity) in C57BL/6 mouse at 3 mg/kg, iv. It is filed as ADME, organism-based. Details: dose 3 mg/kg, time infinity, route intravenous. The following applies: in vivo.
Series [7] in a line: Volume of distribution at steady state in C57BL/6 mouse at 3 mg/kg, iv. In kind it is ADME, organism-based. The note with it: in vivo, read-out: Vdss.
A short description of series [8]: Clearance in C57BL/6 mouse plasma at 3 mg/kg, iv. In kind it is ADME, organism-based.
Series [9] in a line: Half life in C57BL/6 mouse at 3 mg/kg, po. In kind it is ADME, organism-based. The note with it: in vivo.
Series [10] can be described thus: AUC (0 to infinity) in C57BL/6 mouse at 3 mg/kg, po. Details: dose 3 mg/kg, time infinity, route oral. In kind it is ADME, organism-based. The note with it: in vivo.

As a reminder, the solubility is the concentration that dissolves in the medium under given conditions. A lower solubility goes with a poorly soluble substance. Compound `NC1(c2ccc(-c3cnc4c(-c5ccc(S(N)(=O)=O)c6ccccc56)cnn4c3)cc2)CCC1` gave a solubility in “physchem” below 1 µg/mL.
On to `NS(=O)(=O)c1ccc(-c2cnn3cc(-c4ccc(OCCN5CCCC5)cc4)cnc23)c2ccccc12`, for which, in series [1], the Papp amounted to 317 ×10⁻⁶ cm/s. In “physchem”, this compound came in with a solubility of 33 µg/mL (≈ 64.2 µM). In [2], the t1/2 is above 30 min.
The term Cmax denotes the highest concentration seen after dosing. By half-life is commonly meant the time in which the quantity being followed falls by half. A high value points to slow decline. Broadly, the bioavailability is the share of a dose that reaches the circulation, judged against a reference dose that is usually intravenous. High values mean good availability, low ones poor availability. One may read the AUC(0-inf) as the area under the concentration-time curve extrapolated to infinity. One may read the clearance as a measure of how efficiently the substance is removed, as volume per time. A high value points to a high capacity for elimination. Compound `CC(c1ccc(-c2cnc3c(-c4ccc(S(N)(=O)=O)c5ccccc45)cnn3c2)cc1)N1CCCC1` (stereo not given) returned a solubility in the series “physchem” of 7 µg/mL (≈ 14.1 µM). Besides, in series [2], the t1/2 was 22.8 min. The same compound came in with a Cmax in [3] of 67 ng/mL. Further, the half-life in series [4] was 210 min; in series [9], 258 min. The compound also had a bioavailability in series [5] of 24%. In addition, the results for the AUC(0-inf) in series [6] and in [10] were 3220 ng·h/mL and 782 ng·h/mL, respectively. The Vd in series [7] is 4.6 L/kg. In series [8], this compound returned a clearance of 16 mL/min/kg.
Take `CC(N)c1ccc(-c2cnc3c(-c4ccc(S(N)(=O)=O)c5ccccc45)cnn3c2)cc1` (stereo not given): in “physchem”, the solubility was 7.6 µg/mL (≈ 17.1 µM).
In the case of `NS(=O)(=O)c1ccc(-c2cnn3cc(-c4ccc(CN5CCCC5)cc4)cnc23)c2ccccc12`, the Papp in series [1] was found to be 467 ×10⁻⁶ cm/s. This compound also showed a solubility in the series “physchem” of 8 µg/mL (≈ 16.5 µM). In series [2], this compound yielded a t1/2 of 21.9 min.
On to `NS(=O)(=O)c1ccc(-c2cnn3cc(-c4ccc(OCCN5CCCCC5)nc4)cnc23)c2ccccc12`, for which the Papp in [1] was 365 ×10⁻⁶ cm/s. The solubility in “physchem” is below 1 µg/mL. This compound returned a t1/2 in series [2] of 20.9 min.
As for `CN(C)CCOc1ccc(-c2cnc3c(-c4ccc(S(N)(=O)=O)c5ccccc45)cnn3c2)cn1`, the Papp in series [1] amounted to 8.8 ×10⁻⁶ cm/s. This compound came in with a solubility in the series “physchem” below 1 µg/mL. In series [2], this compound came in with a t1/2 of 9.4 min.
For `NS(=O)(=O)c1ccc(-c2cnn3cc(-c4ccc(N5CCNCC5)nc4)cnc23)c2ccccc12` the same measures were 8.3 ×10⁻⁶ cm/s, 1.4 µg/mL (≈ 2.88 µM) and above 30 min.
As for `CC(C)(CN1CCCCC1)Oc1ccc(-c2cnc3c(-c4ccc(S(N)(=O)=O)c5ccccc45)cnn3c2)cc1`, the solubility in the series “physchem” is below 1 µg/mL. The same compound came in with a t1/2 in series [2] of 6.1 min.
Turning to `CC(C)(N)c1ccc(-c2cnc3c(-c4ccc(S(N)(=O)=O)c5ccccc45)cnn3c2)cc1`, the Papp in series [1] was 9.4 ×10⁻⁶ cm/s. The compound also gave a solubility in “physchem” of 10.6 µg/mL (≈ 23.2 µM). Also, the t1/2 in series [2] was above 30 min.
Regarding `NS(=O)(=O)c1ccc(-c2cnn3cc(-c4ccc(C5CCNCC5)cc4)cnc23)c2ccccc12`, the Papp in series [1] is 78.6 ×10⁻⁶ cm/s. Also, the solubility in “physchem” is below 1 µg/mL. In series [2], this compound came in with a t1/2 above 30 min.
